Like-named read-outs stand apart in the source and are kept apart here.
Experiments:
Format in all cases: cell-based
hKv1.3 = hKv1.3 (Homo sapiens, UniProt P22001); test: cell-based; settings: Kv1.3 (IWQ) IC50 (nM, Avg)
[1] = tested on: IFN-g secretion from T cells in human whole blood
[2] = tested on: IL-2 secretion from T cells in human whole blood; settings: read-out: WB (IL-2) IC50 (nM, Avg)
[3] = read-out: WB (IFNg) IC50 (nM, Avg)

Sequence of hKv1.3 (P22001 whole entry): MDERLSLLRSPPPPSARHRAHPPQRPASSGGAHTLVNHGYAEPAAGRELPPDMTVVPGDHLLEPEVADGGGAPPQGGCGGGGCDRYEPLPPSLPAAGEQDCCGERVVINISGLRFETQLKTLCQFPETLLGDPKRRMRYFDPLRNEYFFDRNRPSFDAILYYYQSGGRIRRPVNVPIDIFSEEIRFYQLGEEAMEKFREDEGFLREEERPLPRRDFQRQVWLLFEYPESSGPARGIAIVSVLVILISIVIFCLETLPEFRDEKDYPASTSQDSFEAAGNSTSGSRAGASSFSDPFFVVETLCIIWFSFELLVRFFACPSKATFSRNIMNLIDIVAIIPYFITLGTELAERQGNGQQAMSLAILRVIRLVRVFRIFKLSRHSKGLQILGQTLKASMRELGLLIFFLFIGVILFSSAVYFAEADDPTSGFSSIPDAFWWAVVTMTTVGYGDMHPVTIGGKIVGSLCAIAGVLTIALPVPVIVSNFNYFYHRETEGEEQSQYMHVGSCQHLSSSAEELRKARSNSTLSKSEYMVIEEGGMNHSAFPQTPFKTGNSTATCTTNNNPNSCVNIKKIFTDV

| Structure (SMILES) | IC50 (hKv1.3) [nM] | IC50 [1, 3] [nM] | IC50 [2] [nM] | IC50 ([1]; read-out: WB (IFNg) IC5- (nM, Avg)) [nM] |
| --- | --- | --- | --- | --- |
| CC[C@H](C)[C@@H]1NC(=O)[C@@H](NC(=O)[C@H](CO)NC(=O)[C@@H](N)CCCNC(=N)N)CSSC[C@@H](C(=O)O)NC(=O)[C@H]([C@@H](C)O)NC(=O)CNC(=O)[C@@H]2CSSC[C@@H]3NC(=O)[C@H](CCC(N)=O)NC(=O)[C@H](Cc4ccccc4)NC(=O)[C@H](C)NC(=O)[C@H]([C@@H](C)O)NC(=O)[C@H](CSSC[C@H](NC(=O)[C@H](Cc4ccccc4)NC(=O)[C@H](CO)NC(=O)[C@H](CC(C)C)NC(=O)[C@H](CCCNC(=N)N)NC(=O)[C@H](Cc4ccc(O)cc4)NC(=O)[C@H](CCCCN)NC(=O)[C@H](CCSC)NC(=O)[C@H](CO)NC(=O)[C@H](C)NC(=O)[C@H](CCCCN)NC3=O)C(=O)N[C@@H](CCCNC(=N)N)C(=O)N[C@@H](CCCCN)C(=O)N[C@@H]([C@@H](C)O)C(=O)N2)NC(=O)[C@H](CCCNC(=N)N)NC(=O)[C@H](CO)NC(=O)[C@H](CCCCN)NC(=O)[C@@H]2CCCN2C(=O)[C@H]([C@@H](C)CC)NC(=O)[C@H]([C@@H](C)O)NC(=O)[C@H](CC(=O)O)NC1=O [[Ala19]ShK] | 0.237 | 0.472 | 0.379 | – |
| CC[C@H](C)[C@@H]1NC(=O)[C@@H](NC(=O)[C@H](CO)NC(=O)[C@@H](N)CCCNC(=N)N)CSSC[C@@H](C(N)=O)NC(=O)[C@H]([C@@H](C)O)NC(=O)CNC(=O)[C@@H]2CSSC[C@@H]3NC(=O)[C@H](CCCCN)NC(=O)[C@H](Cc4ccccc4)NC(=O)[C@H](C)NC(=O)[C@H]([C@@H](C)O)NC(=O)[C@H](CSSC[C@H](NC(=O)[C@H](Cc4cccc5ccccc45)NC(=O)[C@H](CO)NC(=O)[C@H](CC(C)C)NC(=O)[C@H](CCCNC(=N)N)NC(=O)[C@H](Cc4ccc(O)cc4)NC(=O)[C@H](CCCCN)NC(=O)[C@H](CCSC)NC(=O)[C@H](CO)NC(=O)[C@H](Cc4c[nH]cn4)NC(=O)[C@H](CCCCN)NC3=O)C(=O)N[C@@H](CCCNC(=N)N)C(=O)N[C@@H](CCCCN)C(=O)N[C@@H]([C@@H](C)O)C(=O)N2)NC(=O)[C@H](CCCNC(=N)N)NC(=O)[C@H](CO)NC(=O)[C@H](CCCCN)NC(=O)[C@@H]2CCCN2C(=O)[C@H]([C@@H](C)CC)NC(=O)[C@H]([C@@H](C)O)NC(=O)[C@H](CC(=O)O)NC1=O [[Lys16,1-Na127]ShK-amide] | 0.299 | 2.94 | 3.95 | – |
| CC[C@H](C)[C@@H]1NC(=O)[C@@H](NC(=O)[C@H](CO)NC(=O)[C@@H](N)CCCNC(=N)N)CSSC[C@@H](C(=O)O)NC(=O)[C@H]([C@@H](C)O)NC(=O)CNC(=O)[C@@H]2CSSC[C@@H]3NC(=O)[C@H](CCC(N)=O)NC(=O)[C@H](Cc4ccccc4)NC(=O)[C@H](C)NC(=O)[C@H]([C@@H](C)O)NC(=O)[C@H](CSSC[C@H](NC(=O)[C@H](Cc4ccccc4)NC(=O)[C@H](CO)NC(=O)[C@H](CC(C)C)NC(=O)[C@H](CCCNC(=N)N)NC(=O)[C@H](Cc4ccc(O)cc4)NC(=O)[C@H](CCCCN)NC(=O)[C@H](CCSC)NC(=O)[C@H](CO)NC(=O)[C@H](Cc4c[nH]cn4)NC(=O)[C@H](CCCCN)NC3=O)C(=O)N[C@@H](CCCNC(=N)N)C(=O)N[C@@H](CCCCN)C(=O)N[C@@H]([C@@H](C)O)C(=O)N2)NC(=O)[C@H](CCCNC(=N)N)NC(=O)[C@H](Cc2cccc3ccccc23)NC(=O)[C@H](CCCCN)NC(=O)[C@@H]2CCCN2C(=O)[C@H]([C@@H](C)CC)NC(=O)[C@H]([C@@H](C)O)NC(=O)[C@H](CC(=O)O)NC1=O [[1-Nal10]ShK] | 0.206 | 0.255 | 0.205 | – |
| CC[C@H](C)[C@@H]1NC(=O)[C@@H](NC(=O)[C@H](CO)NC(=O)[C@@H](N)CCCNC(=N)N)CSSC[C@@H](C(=O)O)NC(=O)[C@H]([C@@H](C)O)NC(=O)CNC(=O)[C@@H]2CSSC[C@@H]3NC(=O)[C@H](CCC(N)=O)NC(=O)[C@H](Cc4ccccc4)NC(=O)[C@H](C)NC(=O)[C@H]([C@@H](C)O)NC(=O)[C@H](CSSC[C@H](NC(=O)[C@H](Cc4ccccc4)NC(=O)[C@H](CO)NC(=O)[C@H](CC(C)C)NC(=O)[C@H](CCCNC(=N)N)NC(=O)[C@H](Cc4ccc(O)cc4)NC(=O)[C@H](CCCCN)NC(=O)[C@H](CCSC)NC(=O)[C@H](CO)NC(=O)[C@H](Cc4c[nH]cn4)NC(=O)[C@H](CCCCN)NC3=O)C(=O)N[C@@H](CCCNC(=N)N)C(=O)N[C@@H](CCCCN)C(=O)N[C@@H]([C@@H](C)O)C(=O)N2)NC(=O)[C@H](CCCNC(=N)N)NC(=O)[C@H](CO)NC(=O)[C@H](CCC(=O)O)NC(=O)[C@@H]2CCCN2C(=O)[C@H]([C@@H](C)CC)NC(=O)[C@H]([C@@H](C)O)NC(=O)[C@H](CC(=O)O)NC1=O [[Glu9]ShK] | 0.128 | – | 0.036 | 0.056 |
| CC[C@H](C)[C@@H]1NC(=O)[C@H]([C@@H](C)O)NC(=O)[C@H](CC(=O)O)NC(=O)[C@H](CCC(=O)O)NC(=O)[C@@H](NC(=O)[C@H](CO)NC(=O)[C@@H](N)CCCNC(=N)N)CSSC[C@@H](C(N)=O)NC(=O)[C@H]([C@@H](C)O)NC(=O)CNC(=O)[C@@H]2CSSC[C@@H]3NC(=O)[C@H](CCCCN)NC(=O)[C@H](Cc4ccccc4)NC(=O)[C@H](C)NC(=O)[C@H]([C@@H](C)O)NC(=O)[C@H](CSSC[C@H](NC(=O)[C@H](Cc4ccccc4)NC(=O)[C@H](CO)NC(=O)[C@H](CC(C)C)NC(=O)[C@H](CCCNC(=N)N)NC(=O)[C@H](Cc4ccc(O)cc4)NC(=O)[C@H](CCCCN)NC(=O)[C@H](CCSC)NC(=O)[C@H](CO)NC(=O)[C@H](Cc4c[nH]cn4)NC(=O)[C@H](CCCCN)NC3=O)C(=O)N[C@@H](CCCNC(=N)N)C(=O)N[C@@H](CCCCN)C(=O)N[C@@H]([C@@H](C)O)C(=O)N2)NC(=O)[C@H](CCCNC(=N)N)NC(=O)[C@H](CO)NC(=O)[C@H](CCCCN)NC(=O)[C@@H]2CCCN2C1=O [[Glu4,Lys16]ShK-amide] | 0.127 | 0.068 | 0.071 | – |
| CC[C@H](C)[C@@H]1NC(=O)[C@@H](NC(=O)[C@H](CO)NC(=O)[C@@H](N)CCCNC(=N)N)CSSC[C@@H](C(=O)O)NC(=O)[C@H]([C@@H](C)O)NC(=O)[C@H](C)NC(=O)[C@@H]2CSSC[C@@H]3NC(=O)[C@H](CCC(N)=O)NC(=O)[C@H](Cc4ccccc4)NC(=O)[C@H](C)NC(=O)[C@H]([C@@H](C)O)NC(=O)[C@H](CSSC[C@H](NC(=O)[C@H](Cc4ccccc4)NC(=O)[C@H](CO)NC(=O)[C@H](CC(C)C)NC(=O)[C@H](CCCNC(=N)N)NC(=O)[C@H](Cc4ccc(O)cc4)NC(=O)[C@H](CCCCN)NC(=O)[C@H](CCSC)NC(=O)[C@H](CO)NC(=O)[C@H](Cc4c[nH]cn4)NC(=O)[C@H](CCCCN)NC3=O)C(=O)N[C@@H](CCCNC(=N)N)C(=O)N[C@@H](CCCCN)C(=O)N[C@@H]([C@@H](C)O)C(=O)N2)NC(=O)[C@H](CCCNC(=N)N)NC(=O)[C@H](CO)NC(=O)[C@H](CCCCN)NC(=O)[C@@H]2CCCN2C(=O)[C@H]([C@@H](C)CC)NC(=O)[C@H]([C@@H](C)O)NC(=O)[C@H](CC(=O)O)NC1=O [[Ala33]ShK] | 0.075 | 0.1 | 0.049 | – |
| CC[C@H](C)[C@@H]1NC(=O)[C@@H](NC(=O)[C@H](CO)NC(=O)[C@@H](N)CCCNC(=N)N)CSSC[C@@H](C(=O)O)NC(=O)[C@H]([C@@H](C)O)NC(=O)CNC(=O)[C@@H]2CSSC[C@@H]3NC(=O)[C@H](CCCNC(=N)N)NC(=O)[C@H](Cc4ccccc4)NC(=O)[C@H](C)NC(=O)[C@H]([C@@H](C)O)NC(=O)[C@H](CSSC[C@H](NC(=O)[C@H](Cc4ccccc4)NC(=O)[C@H](CO)NC(=O)[C@H](CC(C)C)NC(=O)[C@H](CCCNC(=N)N)NC(=O)[C@H](Cc4ccc(O)cc4)NC(=O)[C@H](CCCCN)NC(=O)[C@H](CCSC)NC(=O)[C@H](CO)NC(=O)[C@H](Cc4c[nH]cn4)NC(=O)[C@H](CCCCN)NC3=O)C(=O)N[C@@H](CCCNC(=N)N)C(=O)N[C@@H](CCCCN)C(=O)N[C@@H]([C@@H](C)O)C(=O)N2)NC(=O)[C@H](CCCNC(=N)N)NC(=O)[C@H](CO)NC(=O)[C@H](CCCCN)NC(=O)[C@@H]2CCCN2C(=O)[C@H]([C@@H](C)CC)NC(=O)[C@H]([C@@H](C)O)NC(=O)[C@H](CC(=O)O)NC1=O [[Arg16]ShK] | 0.164 | 0.818 | 0.652 | – |
| CC[C@H](C)[C@@H]1NC(=O)[C@@H](NC(=O)[C@H](CO)NC(=O)[C@@H](N)CCCNC(=N)N)CSSC[C@@H](C(=O)O)NC(=O)[C@H]([C@@H](C)O)NC(=O)CNC(=O)[C@@H]2CSSC[C@@H]3NC(=O)[C@H](CCC(N)=O)NC(=O)[C@H](Cc4ccccc4)NC(=O)[C@H](CCCCN)NC(=O)[C@H]([C@@H](C)O)NC(=O)[C@H](CSSC[C@H](NC(=O)[C@H](Cc4ccccc4)NC(=O)[C@H](CO)NC(=O)[C@H](CC(C)C)NC(=O)[C@H](CCCNC(=N)N)NC(=O)[C@H](Cc4ccc(O)cc4)NC(=O)[C@H](CCCCN)NC(=O)[C@H](CCSC)NC(=O)[C@H](CO)NC(=O)[C@H](Cc4c[nH]cn4)NC(=O)[C@H](CCCCN)NC3=O)C(=O)N[C@@H](CCCNC(=N)N)C(=O)N[C@@H](CCCCN)C(=O)N[C@@H]([C@@H](C)O)C(=O)N2)NC(=O)[C@H](CCCNC(=N)N)NC(=O)[C@H](CO)NC(=O)[C@H](CCCCN)NC(=O)[C@@H]2CCCN2C(=O)[C@H]([C@@H](C)CC)NC(=O)[C@H]([C@@H](C)O)NC(=O)[C@H](CC(=O)O)NC1=O [[Lys14]ShK] | 0.073 | 0.202 | 0.075 | – |
| CCCC[C@@H]1NC(=O)[C@H](CO)NC(=O)[C@H](Cc2c[nH]cn2)NC(=O)[C@H](CCC(=O)O)NC(=O)[C@@H]2CSSC[C@@H]3NC(=O)[C@H]([C@@H](C)O)NC(=O)[C@H](CCCNC(=N)N)NC(=O)[C@H](CCCNC(=N)N)NC(=O)[C@H](CSSC[C@H](NC(=O)[C@H](CCCNC(=N)N)NC(=O)[C@H](CO)NC(=O)[C@H](CCCCN)NC(=O)[C@@H]4CCCN4C(=O)[C@H]([C@@H](C)CC)NC(=O)[C@H]([C@@H](C)O)NC(=O)[C@H](CC(=O)O)NC(=O)[C@H]([C@@H](C)CC)NC(=O)[C@@H](NC(=O)[C@H](CO)NC(=O)[C@@H](N)CCCNC(=N)N)CSSC[C@@H](C(N)=O)NC(=O)[C@H]([C@@H](C)O)NC(=O)CNC3=O)C(=O)N[C@@H]([C@@H](C)O)C(=O)N[C@@H](C)C(=O)N[C@@H](C)C(=O)N[C@@H](CCCCN)C(=O)N2)NC(=O)[C@H](Cc2ccccc2)NC(=O)[C@H](CO)NC(=O)[C@H](CC(C)C)NC(=O)[C@H](CCCNC(=N)N)NC(=O)[C@H](Cc2ccc(O)cc2)NC(=O)[C@H](CCCCN)NC1=O | 0.398 | 2.03 | 1.32 | – |

From US20120121591A1 (priority 2009, published 2012)
